The results in this text go back to US8440666B2, “Pyridazinone compounds and P2X7 receptor inhibitors” (Nissan Chemical Industries, Ltd., priority 2007, dated 2013).

In this assay the target is T1, Human P2X7 (hP2X7) receptor (Homo sapiens, UniProt Q99572).
T1 construct: myc-His (from the pcDNA3.1/myc-HisA vector); expressed in transfected cells
T1 sequence (Q99572 1-595): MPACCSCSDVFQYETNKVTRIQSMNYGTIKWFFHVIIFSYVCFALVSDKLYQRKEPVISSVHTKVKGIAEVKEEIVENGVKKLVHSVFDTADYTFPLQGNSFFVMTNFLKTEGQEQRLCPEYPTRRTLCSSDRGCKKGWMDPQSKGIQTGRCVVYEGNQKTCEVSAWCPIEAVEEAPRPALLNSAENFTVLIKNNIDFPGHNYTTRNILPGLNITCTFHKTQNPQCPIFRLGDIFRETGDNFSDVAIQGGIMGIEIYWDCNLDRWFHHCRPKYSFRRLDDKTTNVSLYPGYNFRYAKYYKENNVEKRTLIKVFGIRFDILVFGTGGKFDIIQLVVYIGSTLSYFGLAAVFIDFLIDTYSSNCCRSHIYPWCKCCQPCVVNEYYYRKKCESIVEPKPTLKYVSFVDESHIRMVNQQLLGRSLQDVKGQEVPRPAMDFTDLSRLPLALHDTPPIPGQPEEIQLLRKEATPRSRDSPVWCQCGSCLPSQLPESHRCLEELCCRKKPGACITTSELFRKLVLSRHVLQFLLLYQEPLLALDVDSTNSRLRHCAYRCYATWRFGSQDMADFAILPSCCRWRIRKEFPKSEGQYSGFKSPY
Description: Dye assay: BzATP-induced Yo-Pro-1 uptake in HEK293 cells stably expressing hP2X7. The class given is cell-based. The following applies: BzATP (0.1 mM)-induced Yo-Pro-1 uptake, compounds 30 min pre-treatment, 90 min incubation. The source says: Human P2X7 (hP2×7) was cloned from a normal human brain total RNA library by reverse transcription (using SuperScript II (Invitrogen)) and PCR (using KOD-plus-(TOYOBO)). PCR primers were designed according to hP2X7 sequence registered in GENBANK with a putative amino acid sequence consisting of 595 amino acid residues. The PCR fragments were inserted into pcDNA3.1/myc-HisA vector (Invitrogen) and sequenced for confirmation.
HEK293 cells were transfected with hP2×7/pcDNA3.1/myc-HisA by lipofection, and 1 day later, the cells were treated with 1 mg/mL G418, and resistant cells were selected by appropriately dilution. The resistant cells were cloned by reseeding at a low density.
P2X7 receptor antagonists were screened by a dye uptake assay using HEK293 cells stably expressing hP2×7. Cells were plated on a type I collagen-coated black/clear bottom 96-well plate at 20000 cells/well and a day later, treated with varying concentrations of various test compounds for 30 minutes, then treated with a dye (Yo-Pro-1) (final concentration 2 μM) and BzATP (final concentration 0.1 mM) and incubated for 90 minutes. Then, the fluorescence (indicating the BzATP-induced Yo-Pro-1 uptake mediated by the P2X7 receptor) was measured with a microplate reader (excitation wavelength: 485 nm, emission wavelength: 535 nm). The % inhibition rates were calculated and plotted against the logarithms of the concentrations to determine IC50.
For the molecule `CC(C)NC(=O)Cn1ncc(N[C@@H]2C[C@@H]3C[C@H]([C@H]2C)C3(C)C)c(Br)c1=O` [compound 2], the half-inhibitory concentration (IC50) turned out to be 51 nM.
The value for `C[C@@H]1[C@H]2C[C@@H](C[C@H]1Nc1cnn(CC(=O)NCCc3ccccc3)c(=O)c1Br)C2(C)C` [compound 6] was 86 nM; that for `C[C@@H]1[C@H]2C[C@@H](C[C@H]1Nc1cnn(CC(=O)NCc3cccnc3)c(=O)c1Br)C2(C)C` [compound 12] was 20 nM.
The value for `C[C@@H]1[C@H]2C[C@@H](C[C@H]1Nc1cnn(CC(=O)NCc3cnccn3)c(=O)c1Br)C2(C)C` [compound 14] was 21 nM.
As for `C[C@@H]1[C@H]2C[C@@H](C[C@H]1Nc1cnn(CC(=O)NC3CC3)c(=O)c1Br)C2(C)C` [compound 19], the 50% inhibitory concentration (IC50) is 38 nM.
Under `CC(NC(=O)Cn1ncc(N[C@@H]2C[C@@H]3C[C@H]([C@H]2C)C3(C)C)c(Br)c1=O)c1ccccc1` (some centres unmarked) [compound 23] stands 34 nM.
As for `C[C@@H]1[C@H]2C[C@@H](C[C@H]1NC(=O)Cn1ncc(N[C@@H]3C[C@@H]4C[C@H]([C@H]3C)C4(C)C)c(Br)c1=O)C2(C)C` [compound 32], the IC50 was 63 nM.
Under `O=C(Cn1ncc(NC23CC4CC(CC(C4)C2)C3)c(Br)c1=O)NCc1ccncc1` [compound 51] stands 16 nM; under `CC1(C)[C@H]2CC[C@@H](CNc3cnn(CC(=O)NCc4ccncc4)c(=O)c3Br)[C@@H]1C2` [compound 54], 26 nM; under `O=C(Cn1ncc(NCC23CC4CC(CC(C4)C2)C3)c(Br)c1=O)NCc1ccncc1` [compound 60], 71 nM.
The value for `CC1(C)C2CCC1(C)C(Nc1cnn(CC(=O)NCc3ccncc3)c(=O)c1Br)C2` (centres unmarked) [compound 61] was 41 nM.
In the case of `O=C(Cn1ncc(NC2C3CC4CC(C3)CC2C4)c(Br)c1=O)NCc1ccncc1` (centres unmarked) [compound 74], the half-inhibitory concentration (IC50) amounted to 22 nM.
Under `C[C@@H]1[C@H]2C[C@@H](C[C@H]1Nc1cnn(CC(=O)Nc3cccc([N+](=O)[O-])c3)c(=O)c1Br)C2(C)C` [compound 79] stands 46 nM.
As to `C[C@@H]1[C@H]2C[C@@H](C[C@H]1Nc1cnn(Cc3ccccn3)c(=O)c1Br)C2(C)C` [compound 87], the IC50 amounted to 62 nM.
For `C[C@@H]1[C@H]2C[C@@H](C[C@H]1Nc1cnn(CC(=O)Nc3ccc4c(c3)C(=O)N(C)C4=O)c(=O)c1Br)C2(C)C` [compound 88], the IC50 was 44 nM.
With `COc1cc(OC)nc(Cn2ncc(N[C@@H]3C[C@@H]4C[C@H]([C@H]3C)C4(C)C)c(Br)c2=O)n1` [compound 89], the IC50 worked out at 35 nM.
The value for `C[C@@H]1[C@H]2C[C@@H](C[C@H]1Nc1cnn(CC(=O)Nc3ccc(N(C)C)cc3)c(=O)c1Br)C2(C)C` [compound 94] was 64 nM; that for `C[C@@H]1[C@H]2C[C@@H](C[C@H]1Nc1cnn(CC(=O)NCc3ccnc(Cl)c3)c(=O)c1Br)C2(C)C` [compound 99] was 39 nM; that for `COc1cc(CNC(=O)Cn2ncc(N[C@@H]3C[C@@H]4C[C@H]([C@H]3C)C4(C)C)c(Br)c2=O)on1` [compound 100] was 54 nM.
Under `C[C@@H]1[C@H]2C[C@@H](C[C@H]1Nc1cnn(CC(=O)NCc3ccncn3)c(=O)c1Br)C2(C)C` [compound 103] stands 14 nM; under `COc1cc(CNC(=O)Cn2ncc(N[C@@H]3C[C@@H]4C[C@H]([C@H]3C)C4(C)C)c(Br)c2=O)ccn1` [compound 104], 57 nM.
In the case of `C[C@@H]1[C@H]2C[C@@H](C[C@H]1Nc1cnn(CC(=O)NCc3cscn3)c(=O)c1Br)C2(C)C` [compound 106], the concentration for half-maximal inhibition (IC50) was determined as 44 nM.
The value for `C[C@@H]1[C@H]2C[C@@H](C[C@H]1Nc1cnn(CC(=O)NCc3ccno3)c(=O)c1Br)C2(C)C` [compound 127] was 19 nM; that for `CC(C)NC(=O)Cn1ncc(N[C@@H]2C[C@@H]3C[C@H]([C@H]2C)C3(C)C)c(Cl)c1=O` [compound 134] was 20 nM.
Under `C[C@@H]1[C@H]2C[C@@H](C[C@H]1Nc1cnn(CC(=O)NCc3ccncc3)c(=O)c1Cl)C2(C)C` [compound 135] stands 4.2 nM; under `C[C@@H]1[C@H]2C[C@@H](C[C@H]1Nc1cnn(CC(=O)NCc3ccnc4ccccc34)c(=O)c1Br)C2(C)C` [compound 167], 22 nM; under `C[C@@H]1[C@H]2C[C@@H](C[C@H]1Nc1cnn(CC(=O)NC(c3ccccc3)c3ccncc3)c(=O)c1Br)C2(C)C` (some centres unmarked) [compound 169], 300 nM.
The value for `Cc1cnccc1CNC(=O)Cn1ncc(N[C@@H]2C[C@@H]3C[C@H]([C@H]2C)C3(C)C)c(Br)c1=O` [compound 170] was 3.1 nM; that for `C[C@@H]1[C@H]2C[C@@H](C[C@H]1Nc1cnn(CC(=O)N/C(=N/O)c3ccncc3)c(=O)c1Br)C2(C)C` [compound 172] was 310 nM.
Take `CC(NC(=O)Cn1ncc(N[C@@H]2C[C@@H]3C[C@H]([C@H]2C)C3(C)C)c(Br)c1=O)c1ccc(F)cc1` (some centres unmarked) [compound 178]: the half-inhibitory concentration (IC50) was determined as 30 nM.
In the case of `C[C@@H]1[C@H]2C[C@@H](C[C@H]1Nc1cnn(CC(=O)NCc3ccc(C(F)(F)F)c(F)c3)c(=O)c1Br)C2(C)C` [compound 183], the half-maximal inhibitory concentration (IC50) was found to be 230 nM.
The value for `C[C@@H]1[C@H]2C[C@@H](C[C@H]1Nc1cnn(CC(=O)NC(C#N)c3ccccc3)c(=O)c1Br)C2(C)C` (some centres unmarked) [compound 190] was 54 nM; that for `CC(NC(=O)Cn1ncc(N[C@@H]2C[C@@H]3C[C@H]([C@H]2C)C3(C)C)c(Br)c1=O)c1ccc(Cl)cc1` (some centres unmarked) [compound 197] was 32 nM.
Under `C[C@@H]1[C@H]2C[C@@H](C[C@H]1Nc1cnn(CC(=O)NC[C@H]3CCCN3C(=O)OC(C)(C)C)c(=O)c1Br)C2(C)C` [compound 201] stands 90 nM; under `CONC(=O)Cn1ncc(N[C@@H]2C[C@@H]3C[C@H]([C@H]2C)C3(C)C)c(Br)c1=O` [compound 202], 140 nM; under `C[C@@H]1[C@H]2C[C@@H](C[C@H]1Nc1cnn(CC(=O)NCc3ccc(O)cc3)c(=O)c1Br)C2(C)C` [compound 205], 58 nM.
In the case of `C[C@@H]1[C@H]2C[C@@H](C[C@H]1Nc1cnn(CC(=O)NCC3CCCCC3)c(=O)c1Br)C2(C)C` [compound 208], the IC50 turned out to be 84 nM.
The value for `CC(C)CNC(=O)Cn1ncc(N[C@@H]2C[C@@H]3C[C@H]([C@H]2C)C3(C)C)c(Br)c1=O` [compound 209] was 42 nM; that for `Cc1noc(C)c1CNC(=O)Cn1ncc(N[C@@H]2C[C@@H]3C[C@H]([C@H]2C)C3(C)C)c(Br)c1=O` [compound 212] was 30 nM; that for `C[C@@H]1[C@H]2C[C@@H](C[C@H]1Nc1cnn(CC(=O)NCc3ccnc(C#N)c3)c(=O)c1Br)C2(C)C` [compound 219] was 31 nM.
Under `CC(NC(=O)Cn1ncc(NC2CC3CC(C2C)C3(C)C)c(Br)c1=O)c1ccnnc1` (centres unmarked) [compound 220] stands 4.2 nM; under `C[C@@H]1[C@H]2C[C@@H](C[C@H]1Nc1cnn(CC(=O)NCc3ccnc(F)c3)c(=O)c1Br)C2(C)C` [compound 222], 4.3 nM.
Under `C[C@@H]1[C@H]2C[C@@H](C[C@H]1Nc1cnn(CC(=O)Nc3nc(-c4ccncc4)cs3)c(=O)c1Cl)C2(C)C` [compound 226] stands 84 nM; under `C[C@@H]1[C@H]2C[C@@H](C[C@H]1Nc1cnn(CC(=O)Nc3cccnc3)c(=O)c1Cl)C2(C)C` [compound 227], 38 nM; under `C[C@@H]1[C@H]2C[C@@H](C[C@H]1Nc1cnn(CC(=O)NCC3CCOCC3)c(=O)c1Cl)C2(C)C` [compound 232], 37 nM.
Consider `C[C@@H]1[C@H]2C[C@@H](C[C@H]1Nc1cnn(CC(=O)NCc3ccccc3N(C)C)c(=O)c1Cl)C2(C)C` [compound 247], for which the half-inhibitory concentration (IC50) was determined as 32 nM.
The value for `C[C@@H]1[C@H]2C[C@@H](C[C@H]1Nc1cnn(CC(=O)NCc3ccc(NS(C)(=O)=O)cc3)c(=O)c1Cl)C2(C)C` [compound 252] was 130 nM.
As to `C[C@@H]1[C@H]2C[C@@H](C[C@H]1Nc1cnn(CC(=O)NC(CCO)c3ccncc3)c(=O)c1Cl)C2(C)C` (some centres unmarked) [compound 253], the IC50 is 36 nM.
Under `C[C@@H]1[C@H]2C[C@@H](C[C@H]1Nc1cnn(CC(=O)NCc3ccnc(C#N)c3)c(=O)c1Cl)C2(C)C` [compound 254] stands 27 nM; under `CC(NC(=O)Cn1ncc(N[C@@H]2C[C@@H]3C[C@H]([C@H]2C)C3(C)C)c(Cl)c1=O)c1ccnc(F)c1` (some centres unmarked) [compound 265], 3.9 nM.

In general, IC50 refers to the concentration that inhibits the measured activity by half.
